# Test results as given in patent publication US20130129720A1, “Combination Cancer Therapies with Wortmannin Analogs” (ONCOTHYREON INC., priority 2010, published 2013).
# Assays:
# [1] = Phase I trial: clinical pharmacokinetics
# PIK3CB = PIK3CB (Homo sapiens, UniProt P42338); test: in vitro kinase assay, PIK3CB; assay type: biochemical
# Description: (§1) Table 1 illustrates the potency of 17-hydroxy PX-866 metabolite in in vitro kinase assays: […]
# PIK3CD = PIK3CD (Homo sapiens, UniProt O00329); test: in vitro kinase assay, PIK3CD; assay type: biochemical
# Description: as §1
# PIK3CA = PIK3CA (Homo sapiens, UniProt P42336); test: in vitro kinase assay, PIK3CA; assay type: biochemical
# Description: as §1
# p110α = p110α (Homo sapiens, UniProt P42336); test: cell based assays, p110α; details: for IC50: in cell based assays
# Description: (§2) PX-866 is an pan-isoform inhibitor of Class I P1-3K that covalently binds to ATP binding site of the p110 catalytic subunit. Described herein are studies that illustrate rapid metabolism of PX-866 to a 17-hydroxy PX-866 derivative.
# clinical = details: human, in vivo
# p110β = p110β (Homo sapiens, UniProt P42338); test: cell based assays, p110β; details: in cell based assays
# Description: as §2
# PIK3CG = PIK3CG (Homo sapiens, UniProt P48736); test: in vitro kinase assay, PIK3CG; assay type: biochemical
# Description: as §1
# [2] = test system: PI-3K pathway (p-mTOR and p-S6); test: Phase I trial: pharmacodynamics in PBMCs stimulated ex vivo, FACS based assay; parameters: species or system human; details: PBMCs of treated patients
# Procedure: The pharmacodynamic effects of PX-866 in patients treated in the phase I single agent study were assessed using isolated peripheral blood mononuclear cells (PBMCs) stimulated ex vivo via FACS based assay. […] The study provided Evidence for pathway inhibition lasting up to 3 days post-treatment.
# [3] = test system: A549 lung tumor xenografts; details: 2 mg/kg PX-866 daily treatment groups
# Procedure: H460 and A549 lung tumor xenografts were implanted subcutaneously in nude mice according to previously described procedures. PX-866 was tested on both a daily (2 mg/kg) and every-other-day dosing (3 mg/kg) schedule alone, and in combination with a 10 mg/kg dose of docetaxel. The dosing schedule of PX-866 relative to docetaxel was varied to test the effect of docetaxel treatment prior to or subsequent to PX-866 treatment. A table of the following dosing regimens is as follows with animals in Group 1 receiving a daily vehicle: […]
# [4] = Phase I trial of oral PX-866: safety, DLT and MTD; assay type: in vivo, human
# Procedure: This was an Open-label dose escalation study with expansion cohort at Maximal Tolerated Dose (MTD), 3+3 design and to test efficacy of 2 dosing schedules (intermittent and continuous). PX-866 was administered as an oral dose.
# The primary and secondary objectives were tested using two different dosing regimens: 10 days of drug administration and daily administration for 28 days.
# Intermittent schedule: 10 dose levels tested (0.5-16 mg). The starting dose level was 0.5 mg. Doses increased as follows: 100% escalation up to 2 mg, 50% escalation up to 4.5 mg, and approximately 30% escalation until the MTD is identified. The highest dose level at which no more than ⅙ patients experiences DLT was declared the MTD. The resulting dose levels were: 0.5, 1, 2, 3, 4.5, 6, 8, 10, 12 and 16 mg.
# FIG. 1 illustrates the dosing schedule for intermittent dosing where PX-866 was given to patients on days 1-5 and 8-12 of a 28-day cycle.
# Continuous dosing schedule: The starting dose was two dose levels below the MTD of intermittent dosing (8 mg) and subsequent dose levels was one or two dose levels (10 mg or 8 mg) below the MTD of intermittent dosing dependent on recommendation of the dose cohort review committee. FIG. 1 illustrates the dosing schedule for continuous dosing.
# p-AKT/T-AKT = test: Phase I trial: p-AKT/T-AKT pharmacodynamics; assay type: in vivo, human; details: 3 of 4 patients at 8 mg, 4 hours after a single oral dose
# advanced solid tumors = test: Phase I trial of oral PX-866: response per RECIST; assay type: in vivo, human
# Procedure: Patient response was evaluated according to Response Evaluation Criteria in Solid Tumors (RECIST). Briefly, all measurable lesions up to a maximum of five lesions, representative of all involved organs were identified as target lesions and recorded and measured at baseline. Target lesions were selected on the basis of their size (lesions with the longest diameter) and their suitability for accurate repeated measurements (either by imaging techniques or clinically). A sum of the longest diameter (LD) for all target lesions was calculated and reported as the baseline sum LD. The baseline sum LD was used as reference by which to characterize the objective tumor. All other lesions (or sites of disease) were identified as non-target lesions and were also be recorded at baseline. Measurements of these lesions were not required, but the presence or absence of each was noted throughout follow-up.
# A Complete Response (CR) indicated a disappearance of all target lesions.
# [5] = in vivo; cited from earlier work
# [6] = aqueous solutions at 37° C. or 0° C. at neutral pH; cited from earlier work
# CUHN015 tumors = test: direct patient tumor model of SCCHN, CUHN015; assay type: in vivo, nude mice; details: PX-866 2 mg/kg 5 out of 7 days; docetaxel 20 mg/kg IP weekly
# Procedure: Briefly, these models employed direct implantation of patients' tumors into nude mice according to Keysar et al., J Clin Oncol 28:15s, 2010 (suppl. abstruct 5558).
# Animals were treated with PX-866 alone, and in combination with 20 mg/kg docetaxel dosed intraperitoneally (IP) on a weekly schedule. Saline treated animals and 20 mg/kg docetaxel dosed animals served as controls for the study.
# Chain of p110α (P42336 whole entry, canonical isoform): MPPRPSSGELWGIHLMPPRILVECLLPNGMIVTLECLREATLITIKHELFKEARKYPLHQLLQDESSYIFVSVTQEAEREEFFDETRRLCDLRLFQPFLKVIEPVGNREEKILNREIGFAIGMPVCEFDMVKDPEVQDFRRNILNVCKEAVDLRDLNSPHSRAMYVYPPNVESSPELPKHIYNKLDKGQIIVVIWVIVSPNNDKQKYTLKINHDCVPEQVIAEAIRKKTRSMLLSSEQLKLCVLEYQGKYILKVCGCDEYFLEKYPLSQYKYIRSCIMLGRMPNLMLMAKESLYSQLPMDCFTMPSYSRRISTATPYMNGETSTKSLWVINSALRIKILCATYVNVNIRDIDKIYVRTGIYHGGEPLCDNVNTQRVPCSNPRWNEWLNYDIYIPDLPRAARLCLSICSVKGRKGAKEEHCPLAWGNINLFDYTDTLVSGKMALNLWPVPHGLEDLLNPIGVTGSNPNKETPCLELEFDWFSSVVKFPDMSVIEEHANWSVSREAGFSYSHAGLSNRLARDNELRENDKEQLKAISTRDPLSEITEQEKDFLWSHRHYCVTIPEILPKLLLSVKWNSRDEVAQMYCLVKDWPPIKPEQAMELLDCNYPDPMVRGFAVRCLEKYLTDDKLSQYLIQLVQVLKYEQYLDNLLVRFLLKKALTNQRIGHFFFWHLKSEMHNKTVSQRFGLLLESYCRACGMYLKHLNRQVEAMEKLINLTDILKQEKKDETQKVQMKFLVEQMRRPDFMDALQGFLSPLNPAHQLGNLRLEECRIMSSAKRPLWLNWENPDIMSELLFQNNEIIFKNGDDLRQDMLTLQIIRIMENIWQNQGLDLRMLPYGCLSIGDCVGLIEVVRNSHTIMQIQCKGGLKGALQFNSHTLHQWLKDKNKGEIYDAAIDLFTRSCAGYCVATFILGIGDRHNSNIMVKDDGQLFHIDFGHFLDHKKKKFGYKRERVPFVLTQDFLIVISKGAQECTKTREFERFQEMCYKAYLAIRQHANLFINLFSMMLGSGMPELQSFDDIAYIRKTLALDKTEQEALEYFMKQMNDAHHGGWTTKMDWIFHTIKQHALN
# Chain of p110α (P27986 whole entry partner, canonical isoform): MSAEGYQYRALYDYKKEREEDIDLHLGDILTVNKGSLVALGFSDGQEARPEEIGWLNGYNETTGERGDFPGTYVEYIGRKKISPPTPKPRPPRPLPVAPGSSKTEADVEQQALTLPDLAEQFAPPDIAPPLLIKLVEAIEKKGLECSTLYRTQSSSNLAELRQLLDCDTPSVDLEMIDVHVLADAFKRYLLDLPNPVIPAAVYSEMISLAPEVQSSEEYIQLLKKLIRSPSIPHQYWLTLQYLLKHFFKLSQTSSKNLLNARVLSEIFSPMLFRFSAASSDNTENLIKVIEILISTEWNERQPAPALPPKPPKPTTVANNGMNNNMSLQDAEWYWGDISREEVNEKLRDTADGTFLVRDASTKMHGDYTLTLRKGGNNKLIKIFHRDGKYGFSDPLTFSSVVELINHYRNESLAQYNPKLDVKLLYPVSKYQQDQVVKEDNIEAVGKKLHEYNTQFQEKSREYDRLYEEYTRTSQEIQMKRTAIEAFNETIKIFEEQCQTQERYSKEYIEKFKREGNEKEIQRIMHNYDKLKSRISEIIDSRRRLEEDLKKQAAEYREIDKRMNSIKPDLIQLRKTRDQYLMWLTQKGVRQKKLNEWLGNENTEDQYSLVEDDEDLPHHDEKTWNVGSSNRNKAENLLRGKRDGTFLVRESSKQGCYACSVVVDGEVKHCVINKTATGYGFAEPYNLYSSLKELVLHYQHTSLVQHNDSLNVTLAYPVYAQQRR
# Chain of PIK3CD (O00329 whole entry): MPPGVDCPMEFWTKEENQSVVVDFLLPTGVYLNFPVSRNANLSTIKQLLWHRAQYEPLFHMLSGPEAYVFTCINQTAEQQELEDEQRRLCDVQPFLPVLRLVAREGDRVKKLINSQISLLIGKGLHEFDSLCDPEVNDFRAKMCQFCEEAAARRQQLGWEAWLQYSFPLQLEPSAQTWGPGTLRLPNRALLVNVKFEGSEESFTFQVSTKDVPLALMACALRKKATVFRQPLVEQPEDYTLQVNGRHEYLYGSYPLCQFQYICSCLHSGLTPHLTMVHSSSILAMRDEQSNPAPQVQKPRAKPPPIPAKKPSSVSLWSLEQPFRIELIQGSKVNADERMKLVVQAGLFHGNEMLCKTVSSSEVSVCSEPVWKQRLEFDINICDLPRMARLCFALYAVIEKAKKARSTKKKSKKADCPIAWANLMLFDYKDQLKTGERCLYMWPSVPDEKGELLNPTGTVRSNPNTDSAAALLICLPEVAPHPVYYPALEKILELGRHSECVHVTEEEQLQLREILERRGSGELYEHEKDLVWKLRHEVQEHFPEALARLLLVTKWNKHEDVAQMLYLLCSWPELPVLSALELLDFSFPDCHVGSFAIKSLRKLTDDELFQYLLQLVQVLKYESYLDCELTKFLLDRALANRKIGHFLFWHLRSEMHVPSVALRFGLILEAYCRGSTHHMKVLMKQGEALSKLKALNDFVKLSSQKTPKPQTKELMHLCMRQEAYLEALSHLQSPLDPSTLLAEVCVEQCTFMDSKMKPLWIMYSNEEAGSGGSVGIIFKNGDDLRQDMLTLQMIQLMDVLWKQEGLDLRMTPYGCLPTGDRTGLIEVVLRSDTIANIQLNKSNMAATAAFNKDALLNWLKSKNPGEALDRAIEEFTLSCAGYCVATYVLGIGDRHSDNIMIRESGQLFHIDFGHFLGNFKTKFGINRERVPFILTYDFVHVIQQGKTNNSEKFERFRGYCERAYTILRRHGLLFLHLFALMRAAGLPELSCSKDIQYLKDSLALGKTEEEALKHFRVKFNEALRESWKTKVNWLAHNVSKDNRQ
# Chain of PIK3CD (P27986 whole entry partner): as the sequence (P27986 whole entry partner, canonical isoform) above
# Chain of PIK3CG (P48736 whole entry): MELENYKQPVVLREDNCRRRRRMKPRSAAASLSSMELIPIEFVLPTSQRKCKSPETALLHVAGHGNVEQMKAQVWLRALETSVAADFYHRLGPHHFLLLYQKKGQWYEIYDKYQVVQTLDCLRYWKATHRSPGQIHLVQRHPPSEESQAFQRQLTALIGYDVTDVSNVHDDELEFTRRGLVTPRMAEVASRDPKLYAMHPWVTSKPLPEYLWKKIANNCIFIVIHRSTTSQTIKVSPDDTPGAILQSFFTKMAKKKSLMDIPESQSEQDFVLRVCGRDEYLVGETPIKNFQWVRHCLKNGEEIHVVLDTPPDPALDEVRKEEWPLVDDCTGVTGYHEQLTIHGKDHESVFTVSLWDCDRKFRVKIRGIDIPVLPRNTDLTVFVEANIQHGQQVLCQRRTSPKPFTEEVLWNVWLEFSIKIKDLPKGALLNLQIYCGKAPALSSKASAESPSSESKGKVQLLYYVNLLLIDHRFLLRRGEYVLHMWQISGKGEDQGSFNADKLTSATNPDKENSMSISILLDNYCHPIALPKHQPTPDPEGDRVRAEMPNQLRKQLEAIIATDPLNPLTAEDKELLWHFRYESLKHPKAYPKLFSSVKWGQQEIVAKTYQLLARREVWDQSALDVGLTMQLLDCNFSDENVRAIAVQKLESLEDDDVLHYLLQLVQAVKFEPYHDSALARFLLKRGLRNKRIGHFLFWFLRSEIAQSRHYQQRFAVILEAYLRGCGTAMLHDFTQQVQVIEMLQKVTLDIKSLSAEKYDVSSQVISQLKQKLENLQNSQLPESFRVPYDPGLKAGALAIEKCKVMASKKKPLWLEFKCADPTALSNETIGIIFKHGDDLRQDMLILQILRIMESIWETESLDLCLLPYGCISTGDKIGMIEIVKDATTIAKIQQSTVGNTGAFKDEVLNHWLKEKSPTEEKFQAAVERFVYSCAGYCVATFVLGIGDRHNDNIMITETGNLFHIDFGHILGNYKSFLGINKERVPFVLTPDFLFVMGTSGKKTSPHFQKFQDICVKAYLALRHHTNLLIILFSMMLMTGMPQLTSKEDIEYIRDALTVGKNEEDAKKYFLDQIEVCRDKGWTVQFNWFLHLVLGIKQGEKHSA
# Chain of p110β (P42338 whole entry): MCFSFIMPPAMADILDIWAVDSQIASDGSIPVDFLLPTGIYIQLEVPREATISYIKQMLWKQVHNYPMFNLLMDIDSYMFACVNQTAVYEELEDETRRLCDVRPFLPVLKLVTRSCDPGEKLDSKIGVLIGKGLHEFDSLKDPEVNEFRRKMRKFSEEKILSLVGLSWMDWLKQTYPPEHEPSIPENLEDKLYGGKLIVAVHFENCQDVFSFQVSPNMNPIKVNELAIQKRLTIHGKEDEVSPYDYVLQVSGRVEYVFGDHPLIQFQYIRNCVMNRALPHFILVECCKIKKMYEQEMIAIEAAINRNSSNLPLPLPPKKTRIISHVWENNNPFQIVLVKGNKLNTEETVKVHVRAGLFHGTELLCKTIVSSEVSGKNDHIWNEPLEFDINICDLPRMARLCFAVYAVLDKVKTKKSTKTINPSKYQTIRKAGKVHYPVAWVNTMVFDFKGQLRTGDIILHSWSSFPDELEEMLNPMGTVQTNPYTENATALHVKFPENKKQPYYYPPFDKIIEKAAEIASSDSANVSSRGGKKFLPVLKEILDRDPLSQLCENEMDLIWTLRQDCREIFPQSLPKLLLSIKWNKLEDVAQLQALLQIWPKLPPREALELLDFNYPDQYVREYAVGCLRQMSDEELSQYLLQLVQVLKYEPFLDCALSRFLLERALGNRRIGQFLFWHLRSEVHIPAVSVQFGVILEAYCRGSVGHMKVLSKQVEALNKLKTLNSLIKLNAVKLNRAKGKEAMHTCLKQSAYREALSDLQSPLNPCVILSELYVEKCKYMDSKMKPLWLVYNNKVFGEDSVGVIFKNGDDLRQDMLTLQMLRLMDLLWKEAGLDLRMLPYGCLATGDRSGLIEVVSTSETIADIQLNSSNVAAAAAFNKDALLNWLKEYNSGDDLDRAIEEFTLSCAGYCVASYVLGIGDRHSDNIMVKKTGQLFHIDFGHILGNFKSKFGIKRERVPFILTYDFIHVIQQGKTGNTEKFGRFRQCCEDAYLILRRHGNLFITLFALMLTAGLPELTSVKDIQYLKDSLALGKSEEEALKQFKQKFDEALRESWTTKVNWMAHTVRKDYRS
# Chain of p110β (P27986 whole entry partner): as the sequence (P27986 whole entry partner, canonical isoform) above
compound,measurement,setting,value
C=CCN(C=C1C(=O)OC(COC)C2(C)C1=C(O)C(=O)C1=C2C(OC(C)=O)CC2(C)C(O)CCC12)CC=C (centres unmarked) [17-OH PX-866],drug accumulation,"[1]; 12 mg cohort, intermittent dosing",no evidence of drug accumulation
same,AUC in humans compared with mice,[1]; due to increased mean residence time in humans,exceeded AUC in mice
same,Cmax in humans compared with mice,[1]; mice treated at an efficacious dose of PX-866 (2 mg/kg),equal to or exceed peak levels observed in mice
same,IC50,PIK3CB,57 nM
same,IC50,PIK3CD,131 nM
same,IC50,PIK3CA,14 nM
same,increase in potency,"p110α; cell proliferation assays versus p110α and p110β isoforms, relative to PX-866",2-5 fold
same,IC50,p110α,14 nM
same,AUC(0-t),clinical; 8 mg,4.22 ng·h/mL
same,Cmax,clinical; 8 mg,1.14 ng/mL
same,half-life,clinical; 8 mg,217 min
same,Tmax,clinical; po,40.2 to 64.2 min
same,IC50,p110β,57 nM
same,IC50,PIK3CG,148 nM
"C=CCN(/C=C1/C(=O)O[C@H](COC)[C@@]2(C)C1=C(O)C(=O)C1=C2[C@H](OC(C)=O)C[C@]2(C)C(=O)CC[C@@H]12)CC=C [PX-866, Acetic acid 4-diallylaminomethylene-6-hydroxy-1-α-methoxymethyl-10β,13β-dimethyl-3,7,17-trioxo-1,3,4,7,10,11β,12,13,14α,15,16,17-dodecahydro-2-oxa-cyclopenta[α]phenanthren-11-yl ester]",duration of pathway inhibition post-treatment,[2],up to 3 days
same,mortality,[3],Increased mortality
same,conversion of parent to 17-OH metabolite,"[1]; oral, patients",rapid conversion
same,plasma level of parent,"[1]; oral, patients, with rare exceptions",below the limits of detection
same,ALT/AST elevation,[4]; continuous dosing,ALT/AST elevation was observed
same,Most common adverse events (AEs),[4]; continuous dosing,"diarrhea, nausea, vomiting, headache and fatigue"
same,"DLT, patients","[4]; continuous dosing, 10 mg per day",2/3
same,Most common adverse events (AEs),[4]; intermittent dosing,"diarrhea, nausea, vomiting, and constipation"
same,toxicity in patients receiving >2 cycles,[4]; intermittent dosing schedule,No significant increase in toxicity
same,"Dose limiting toxicity (DLT), patients","[4]; intermittent dosing, 16 mg per day",2/5
same,Maximal Tolerated Dose (MTD) for continuous dosing,"[4]; oral, daily for 28 days",8 mg per day
same,Maximal Tolerated Dose (MTD) for intermittent dosing,"[4]; oral, days 1-5 and 8-12 of a 28-day cycle",12 mg per day
same,decrease in p-AKT/T-AKT,p-AKT/T-AKT,≥ 60%
same,IC50,PIK3CB,88 nM
same,"Disease stabilization, patients",advanced solid tumors; continuous dosing,71%
same,"Disease stabilization, patients",advanced solid tumors; intermittent dosing,16%
same,IC50,PIK3CD,124 nM
same,IC50,PIK3CA,39 nM
same,IC50,p110α,39 nM
same,IC50,p110β,88 nM
same,IC50,PIK3CG,198 nM
COC[C@H]1OC(=O)c2coc3c2[C@@]1(C)C1=C(C3=O)[C@@H]2CCC(=O)[C@@]2(C)C[C@H]1OC(C)=O [Wortmannin],toxicity,[5],liver and hematologic toxicity
same,stability,[6],subject to decomposition by hydrolytic opening of the furan ring
"CC(=O)O[C@@]12CO[C@@H]1C[C@H](O)[C@@]1(C)C(=O)[C@H](O)C3=C(C)[C@@H](OC(=O)[C@H](O)[C@@H](NC(=O)OC(C)(C)C)c4ccccc4)C[C@@](O)([C@@H](OC(=O)c4ccccc4)[C@H]21)C3(C)C [docetaxel, (2R,3S)—N-carboxy-3-phenylisoserine,N-tert-butyl ester, 13-ester with 5β-20-epoxy-1,2α,4,7β,10β,13α-hexahydroxytax-11-en-9-one 4-acetate 2-benzoate, trihydrate]",tumor growth,CUHN015 tumors,no effect on tumor growth
